Where “and” joins values, the source holds several entries; their conditions need not be identical. Equal values may be shown once.
Key:
[1] = test system: Homo sapiens; assay: Effect of co-administered drugs on the AUC and Cmax for Simvastatin, and its active metabolite Simvastatin acid. The geometric mean AUC and Cmax ratio (Ratio: with/without co-administered drug) for Simvastatin acid following single dose co-administration of Simvastatin with different drugs.; assay type: ADME, organism-based; conditions: in vivo, po, dosed compound id 2, dosed compound name SIMVASTATIN, regimen Single dose, tissue Plasma
[2] = test system: Homo sapiens; assay: Effect of the co-administered drugs on the AUC and Cmax of simvastatin and simvastatin acid. The geometric mean AUC and Cmax ratio (Ratio: with/without co-administered drug) for simvastatin and simvastatin acid following multpile dose co-administration of simvastatin with different drugs.; assay type: ADME, organism-based; conditions: in vivo, po, dose 20 mg, dosed compound id 2, dosed compound name SIMVASTATIN, regimen Every 24h, tissue Plasma
[3] = dose 20 mg, interact cpd dose 2 g
[4] = dose 20 mg, interact cpd dose 237 mL, inter cpd dosed level low, inter cpd dos duration 3 days
[5] = dose 40 mg, interact cpd dose 600 mg, inter cpd dos duration 3 days
[6] = dose 60 mg, interact cpd dose 200 mL, inter cpd dosed level high, inter cpd dos duration 2 days
[7] = dose 80 mg, interact cpd dose 10 mg, inter cpd dos duration 10 days
[8] = dose 80 mg, interact cpd dose 120 mg, inter cpd dos duration 10 days
[9] = dose 80 mg, interact cpd dose 160 mg, inter cpd dos duration 14 days, study dosing duration 7 days
[10] = dose 80 mg, interact cpd dose 200 mg, inter cpd dos duration 4 days
[11] = dose 80 mg, interact cpd dose 240 mg, inter cpd dos duration 3 days

Ratio AUC [1, 3]	Ratio Cmax [1, 3]	Ratio AUC [1, 4]	Ratio AUC [1, 5]	Ratio Cmax [1, 5]	Ratio Cmax [1, 6]	Ratio AUC [1, 7]	Ratio Cmax [1, 7]	Ratio AUC [1, 8]	Ratio Cmax [1, 8]	Ratio AUC [1, 9]	Ratio Cmax [1, 9]	Ratio AUC [1, 10]	Ratio Cmax [1, 10]	Ratio AUC [1, 11]	Ratio Cmax [1, 11]	Ratio AUC [1, 6]	Ratio AUC ([1]; dose 80 mg, interact cpd dose 240 mg, inter cpd dos duration 7 days)	Ratio Cmax ([2]; interact cpd dose 200 mg, inter cpd dos duration 4 days)	Ratio AUC ([2]; interact cpd dose 1250 mg, inter cpd dos duration 14 days, study dosing duration 28 days)	SMILES
1.6	1.84	1.3	2.85	2.18	7	1.58	1.56	2.69	2.69	0.64	0.89	12	15 and 13.1	2.3	2.4					CCC(C)(C)C(=O)O[C@H]1C[C@@H](C)C=C2C=C[C@H](C)[C@H](CC[C@@H](O)C[C@@H](O)CC(=O)O)[C@H]21 [TENIVASTATIN]
1.4	1.08	1.9	1.35	0.91		1.77	1.47	3.1	2.88	0.89	0.83	8.9	5.3 and 13.1		2.1	16	2.5	6.2	6	CCC(C)(C)C(=O)O[C@H]1C[C@@H](C)C=C2C=C[C@H](C)[C@H](CC[C@@H]3C[C@@H](O)CC(=O)O3)[C@H]21 [SIMVASTATIN]
